The target of the experiment is human adenosine A2a receptor (Homo sapiens (Human), UniProt P29274). In words: A2a receptor binding affinity, [3H]-NECA radioligand binding test. Particulars: [3H]-NECA 37 nM; membrane from HEK-293 cells transfected with human adenosine A2a receptor. The method in brief: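 Membranes from HEK-293 cells expressing human A2a receptor were incubated with [3H]-NECA (final 37 nM) and compound for 1 h at room temperature in 50 mM Tris, 10 mM MgCl2, 1 mM EDTA, pH 7.4. Bound ligand was filtered on PEI-coated plates and counted by scintillation to derive IC50 (μM).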
human adenosine A2a receptor, sequence (P29274 whole entry): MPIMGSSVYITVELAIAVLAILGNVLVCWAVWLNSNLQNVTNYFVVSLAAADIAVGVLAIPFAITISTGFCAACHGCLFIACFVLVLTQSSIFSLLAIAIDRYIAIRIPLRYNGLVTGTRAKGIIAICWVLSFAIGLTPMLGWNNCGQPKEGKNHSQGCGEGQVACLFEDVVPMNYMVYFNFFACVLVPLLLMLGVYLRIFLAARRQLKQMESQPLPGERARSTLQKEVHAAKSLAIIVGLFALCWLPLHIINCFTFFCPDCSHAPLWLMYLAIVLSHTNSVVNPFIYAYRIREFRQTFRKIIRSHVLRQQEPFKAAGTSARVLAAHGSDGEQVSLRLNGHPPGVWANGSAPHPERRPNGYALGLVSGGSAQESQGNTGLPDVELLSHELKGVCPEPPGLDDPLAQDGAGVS
For the compound `COCCN1CCC(C2CCN(C(=O)[C@@H]3CCN3c3cc4nc(-c5ccco5)nn4c(N)n3)CC2)CC1` [Example 380, (S)-(1-(5-amino-2-(furan-2-yl)-[1,2,4]triazolo[1,5-c]pyrimidin-7-yl)azetidin-2-yl)(1′-(2-methoxyethyl)-[4,4′-bipiperidin]-1-yl)methanone], the IC50 was found to be 5 nM. With `CC(C)(O)CN1CCC(C2CCN(C(=O)[C@@H]3CCN3c3cc4nc(-c5ccco5)nn4c(N)n3)CC2)CC1` [Example 381, (S)-(1-(5-amino-2-(furan-2-yl)-[1,2,4]triazolo[1,5-c]pyrimidin-7-yl)azetidin-2-yl)(1′-(2-hydroxy-2-methylpropyl)-[4,4′-bipiperidin]-1-yl)methanone] the figure was 9 nM; with `CC(C)(F)CN1CCC(C2CCN(C(=O)[C@@H]3CCN3c3cc4nc(-c5ccco5)nn4c(N)n3)CC2)CC1` [Example 382, (S)-(1-(5-amino-2-(furan-2-yl)-[1,2,4]triazolo[1,5-c]pyrimidin-7-yl)azetidin-2-yl)(1′-(2-fluoro-2-methylpropyl)-[4,4′-bipiperidin]-1-yl)methanone], 3 nM; with `CCCCN1CCC(C2CCN(C(=O)[C@@H]3CCN3c3cc4nc(-c5ccco5)nn4c(N)n3)CC2)CC1` [Example 383, (S)-(1-(5-amino-2-(furan-2-yl)-[1,2,4]triazolo[1,5-c]pyrimidin-7-yl)azetidin-2-yl)(1′-butyl-[4,4′-bipiperidin]-1-yl)methanone], 2 nM. The figure for `Nc1nc(N2CCC[C@H]2C(=O)N2CCN(c3ncc4c(n3)COC4)CC2)nc2nc(-c3ccco3)nn12` [Example 384, 2-(4-((7-amino-2-(furan-2-yl)-[1,2,4]triazolo[1,5-a][1,3,5]triazin-5-yl)-L-prolyl)piperazin-1-yl)-5,7-dihydrofuro[3,4-d]pyrimidine] is 0.5 nM; for `Nc1nc(N2CC3(CC3)C[C@H]2C(=O)N2CCN(CC(F)(F)F)CC2)nc2nc(-c3ccco3)nn12` [Example 385, (S)-(5-(7-amino-2-(furan-2-yl)-[1,2,4]triazolo[1,5-a][1,3,5]triazin-5-yl)-5-azaspiro[2.4]heptan-6-yl)(4-(2,2,2-trifluoroethyl)piperazin-1-yl)methanone] it is 0.8 nM. With `CC(C)(F)CN1CCN(C(=O)[C@@H]2CC3(CC3)CN2c2nc(N)n3nc(-c4ccco4)nc3n2)CC1` [Example 386, (S)-(5-(7-amino-2-(furan-2-yl)-[1,2,4]triazolo[1,5-a][1,3,5]triazin-5-yl)-5-azaspiro[2.4]heptan-6-yl)(4-(2-fluoro-2-methylpropyl)piperazin-1-yl)methanone] the figure was 8 nM; with `CC1(C)C[C@@H](C(=O)N2CCN(CC(F)(F)F)CC2)N(c2nc(N)n3nc(-c4ccco4)nc3n2)C1` [Example 387, (S)-(1-(7-amino-2-(furan-2-yl)-[1,2,4]triazolo[1,5-a][1,3,5]triazin-5-yl)-4,4-dimethylpyrrolidin-2-yl)(4-(2,2,2-trifluoroethyl)piperazin-1-yl)methanone], 1 nM. For the compound `CC(C)(F)CN1CCN(C(=O)CNc2nc(N)n3nc(-c4ccco4)nc3n2)CC1` [Example 388, 2-((7-amino-2-(furan-2-yl)-[1,2,4]triazolo[1,5-a][1,3,5]triazin-5-yl)amino)-1-(4-(2-fluoro-2-methylpropyl)piperazin-1-yl)ethan-1-one], the half-inhibitory concentration (IC50) turned out to be 9 nM. The figure for `Nc1nc(N2CCC[C@H]2C(=O)N2CCN(CC3(F)CCOCC3)CC2)nc2nc(-c3ccco3)nn12` [Example 389, (S)-(1-(7-amino-2-(furan-2-yl)-[1,2,4]triazolo[1,5-a][1,3,5]triazin-5-yl)pyrrolidin-2-yl)(4-((4-fluorotetrahydro-2H-pyran-4-yl)methyl)piperazin-1-yl)methanone] is 7 nM. The figure for `Nc1nc(N2CCC[C@H]2C(=O)N2CCC(N3CC(F)(F)C3)CC2)nc2nc(-c3ccco3)nn12` [Example 390, (S)-(1-(7-amino-2-(furan-2-yl)-[1,2,4]triazolo[1,5-a][1,3,5]triazin-5-yl)pyrrolidin-2-yl)(4-(3,3-difluoroazetidin-1-yl)piperidin-1-yl)methanone] is 8 nM; for `Nc1nc(N2CCC[C@H]2C(=O)N2CCC(N3CCC(F)(F)CC3)CC2)nc2nc(-c3ccco3)nn12` [Example 391, (S)-(1-(7-amino-2-(furan-2-yl)-[1,2,4]triazolo[1,5-a][1,3,5]triazin-5-yl)pyrrolidin-2-yl)(4,4-difluoro-[1,4′-bipiperidin]-1′-yl) methanone] it is 7 nM; for `Nc1nc(N2CCC[C@H]2C(=O)N2CCN(C3CCC3)CC2)nc2nc(-c3ccco3)nn12` [Example 392, (S)-(1-(7-amino-2-(furan-2-yl)-[1,2,4]triazolo[1,5-a][1,3,5]triazin-5-yl)pyrrolidin-2-yl)(4-cyclobutylpiperazin-1-yl)methanone] it is 9 nM. Regarding `Nc1nc(N2CCC[C@H]2C(=O)N2CCC(C3CCN(CC(F)F)CC3)CC2)cc2nc(-c3ccco3)nn12` [Example 393, (S)-(1-(5-amino-2-(furan-2-yl)-[1,2,4]triazolo[1,5-c]pyrimidin-7-yl)pyrrolidin-2-yl)(1′-(2,2-difluoroethyl)-[4,4′-bipiperidin]-1-yl)methanone], the IC50 is 13 nM. The IC50 values of the last two compounds are within 1.5-fold of each other. With `CC(F)(F)CN1CCC(C2CCN(C(=O)[C@@H]3CCCN3c3cc4nc(-c5ccco5)nn4c(N)n3)CC2)CC1` [Example 394, (S)-(1-(5-amino-2-(furan-2-yl)-[1,2,4]triazolo[1,5-c]pyrimidin-7-yl)pyrrolidin-2-yl)(1′-(2,2-difluoropropyl)-[4,4′-bipiperidin]-1-yl)methanone] the figure was 15 nM. With `CC(C)(F)CN1CCC(C2CCN(C(=O)[C@@H]3CCCN3c3cc4nc(-c5ccco5)nn4c(N)n3)CC2)CC1` [Example 395, (S)-(1-(5-amino-2-(furan-2-yl)-[1,2,4]triazolo[1,5-c]pyrimidin-7-yl)pyrrolidin-2-yl)(1′-(2-fluoro-2-methylpropyl)-[4,4′-bipiperidin]-1-yl)methanone] the figure was 18 nM; with `COC[C@H](Nc1nc(N)n2nc(-c3ccco3)nc2n1)C(=O)N1CCN(CC(F)F)CC1` [Example 396, (S)-2-((7-amino-2-(furan-2-yl)-[1,2,4]triazolo[1,5-a][1,3,5]triazin-5-yl)amino)-1-(4-(2,2-difluoroethyl)piperazin-1-yl)-3-methoxypropan-1-one], 29 nM; with `COC[C@H](Nc1nc(N)n2nc(-c3ccco3)nc2n1)C(=O)N1CCN(CC(C)(F)F)CC1` [Example 397, (S)-2-((7-amino-2-(furan-2-yl)-[1,2,4]triazolo[1,5-a][1,3,5]triazin-5-yl)amino)-1-(4-(2,2-difluoropropyl)piperazin-1-yl)-3-methoxypropan-1-one], 12 nM. The figure for `COC[C@H](Nc1nc(N)n2nc(-c3ccco3)nc2n1)C(=O)N1CCN(C2CCC(F)(F)CC2)CC1` [Example 398, (S)-2-((7-amino-2-(furan-2-yl)-[1,2,4]triazolo[1,5-a][1,3,5]triazin-5-yl)amino)-1-(4-(4,4-difluorocyclohexyl)piperazin-1-yl)-3-methoxypropan-1-one] is 20 nM.

Turning to `COC[C@H](Nc1nc(N)n2nc(-c3ccco3)nc2n1)C(=O)N1CCN(CC(C)(C)O)CC1` [Example 399, (S)-2-((7-amino-2-(furan-2-yl)-[1,2,4]triazolo[1,5-a][1,3,5]triazin-5-yl)amino)-1-(4-(2-hydroxy-2-methylpropyl)piperazin-1-yl)-3-methoxypropan-1-one], the concentration for half-maximal inhibition (IC50) was 5 nM. The compound `Nc1nc(N2CCC[C@H]2C(=O)N2CCC(N3CC(F)(F)C3)CC2)cc2nc(-c3ccco3)nn12` [Example 400, (S)-(1-(5-amino-2-(furan-2-yl)-[1,2,4]triazolo[1,5-c]pyrimidin-7-yl)pyrrolidine-2-yl)(4-(3,3-difluoroazetidin-1-yl)piperidin-1-yl)methanone] had a concentration for half-maximal inhibition (IC50) of 14 nM. Regarding `CCCCN1CCN(C(=O)[C@H](COC)Nc2nc(N)n3nc(-c4ccco4)nc3n2)CC1` [Example 401, (S)-2-((7-amino-2-(furan-2-yl)-[1,2,4]triazolo[1,5-a][1,3,5]triazin-5-yl)amino)-1-(4-butylpiperazin-1-yl)-3-methoxypropan-1-one], the half-maximal inhibitory concentration (IC50) was determined as 11 nM.

Consider `Nc1nc(N2CC[C@H]2C(=O)N2CCC(CN3CCC(C(F)(F)F)CC3)CC2)nc2nc(-c3ccco3)nn12` [Example 402, (S)-(1-(7-amino-2-(furan-2-yl)-[1,2,4]triazolo[1,5-a][1,3,5]triazin-5-yl)azetidin-2-yl)(4-((4-(trifluoromethyl)piperidin-1-yl)methyl)piperidin-1-yl)methanone], for which the half-maximal inhibitory concentration (IC50) came out at 10 nM. `Nc1nc(N2CCC[C@H]2C(=O)N2CCN(C3COC3)CC2)nc2nc(-c3ccco3)nn12` [Example 403, (S)-(1-(7-amino-2-(furan-2-yl)-[1,2,4]triazolo[1,5-a][1,3,5]triazin-5-yl)pyrrolidin-2-yl)(4-(oxetan-3-yl)piperazin-1-yl)methanone] came in with an IC50 of 9 nM. With `Nc1nc(N2CCC[C@H]2C(=O)N2CCN(C3COC3)CC2)cc2nc(-c3ccco3)nn12` [Example 404] the figure was 18 nM. `COCCN1CCN(C2CN(C(=O)[C@@H]3CCCN3c3nc(N)n4nc(-c5ccco5)nc4n3)C2)CC1` [Example 405, (S)-(1-(7-amino-2-(furan-2-yl)-[1,2,4]triazolo[1,5-a][1,3,5]triazin-5-yl)pyrrolidin-2-yl)(3-(4-(2-methoxyethyl)piperazin-1-yl)azetidin-1-yl)methanone] showed an IC50 of 71 nM. Turning to `Nc1nc(N2CCC[C@H]2C(=O)N2CCC(CN3CC(F)C3)CC2)nc2nc(-c3ccco3)nn12` [Example 406, (S)-(1-(7-amino-2-(furan-2-yl)-[1,2,4]triazolo[1,5-a][1,3,5]triazin-5-yl)pyrrolidin-2-yl)(4-((3-fluoroazetidin-1-yl)methyl)piperidin-1-yl)methanone], the IC50 amounted to 17 nM.
